From patent US8299048B2, “Hexahydrocyclopentyl[f]indazole sulfonamides and derivatives thereof as selective glucocorticoid receptor modulators” (Merck Sharp & Dohme Corp., priority 2008, dated 2012) come the findings set out here.

Structures are written as SMILES.

In this test the target is T1, glucocorticoid receptor (Homo sapiens, UniProt P04150).
T1 construct: endogenous in cells
T1 sequence (P04150 1-777): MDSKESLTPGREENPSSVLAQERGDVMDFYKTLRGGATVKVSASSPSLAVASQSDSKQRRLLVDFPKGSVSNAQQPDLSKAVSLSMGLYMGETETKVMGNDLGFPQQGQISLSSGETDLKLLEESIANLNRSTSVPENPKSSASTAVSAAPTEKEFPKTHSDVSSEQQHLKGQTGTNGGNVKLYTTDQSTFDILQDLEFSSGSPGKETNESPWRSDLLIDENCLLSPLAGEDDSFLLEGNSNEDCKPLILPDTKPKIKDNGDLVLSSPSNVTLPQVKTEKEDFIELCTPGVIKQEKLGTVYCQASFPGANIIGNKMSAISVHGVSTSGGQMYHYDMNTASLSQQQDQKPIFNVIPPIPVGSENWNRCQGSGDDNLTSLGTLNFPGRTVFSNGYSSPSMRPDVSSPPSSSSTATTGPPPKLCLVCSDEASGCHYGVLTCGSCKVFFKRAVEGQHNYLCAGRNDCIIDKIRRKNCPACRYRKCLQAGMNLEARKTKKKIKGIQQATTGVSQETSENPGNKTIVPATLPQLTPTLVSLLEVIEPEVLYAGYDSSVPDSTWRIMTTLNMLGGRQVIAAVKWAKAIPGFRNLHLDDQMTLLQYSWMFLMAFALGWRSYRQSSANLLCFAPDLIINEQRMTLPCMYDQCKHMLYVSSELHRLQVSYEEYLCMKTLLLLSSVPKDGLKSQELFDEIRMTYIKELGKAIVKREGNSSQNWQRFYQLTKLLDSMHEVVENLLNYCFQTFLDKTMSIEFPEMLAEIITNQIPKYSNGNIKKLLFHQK
The test is described as follows: Ligand binding assay (GR BIND). Summed up:
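Displacement of tritiated dexamethasone (6 nM trace solution) from receptor in cell supernatant was measured after overnight incubation at 4 °C in molybdate-containing TEGM, pH 7.2, 2% ethanol. Hydroxylapatite pulled down the receptor–ligand complex for filter washing and scintillation counting, with dexamethasone as reference.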
The term Ki denotes a dissociation constant, usually derived from enzyme kinetics or from competition with a known ligand. The low end stands for higher affinity, the high end for lower affinity. Take `C[C@]12Cc3cnn(-c4ccccc4)c3C=C1CC[C@@H]2CN(CCc1ccccn1)S(=O)(=O)CC(F)(F)F` [Example 138, 2,2,2-trifluoro-N-{[(4αR,5S)-4α-methyl-1-phenyl-1,4,4α,5,6,7-hexahydrocyclopenta[f]indazol-5-yl]methyl}-N-(2-pyridin-2-ylethyl)ethanesulfonamide]: the affinity, expressed as Ki, was 1.2 nM.

As for `COc1ccccc1CCN(C[C@H]1CCC2=Cc3c(cnn3-c3ccccc3)C[C@@]21C)S(=O)(=O)CC(F)(F)F` [Example 139, 2,2,2-trifluoro-N-[2-(2-methoxyphenyl)ethyl]-N-{[(4αR,5S)-4α-methyl-1-phenyl-1,4,4α,5,6,7-hexahydrocyclopenta[f]indazol-5-yl]methyl}ethanesulfonamide], the affinity corresponds to a Ki of 1.5 nM.

In the case of `C[C@]12Cc3cnn(-c4ccccc4)c3C=C1CC[C@@H]2CN(CCc1ccccn1)S(=O)(=O)Cc1cccnc1` [Example 140, N-{[(4αR,5S)-4α-methyl-1-phenyl-1,4,4α,5,6,7-hexahydrocyclopenta[f]indazol-5-yl]methyl}-1-pyridin-3-yl-N-(2-pyridin-2-ylethyl)methanesulfonamide], affinity was put at a Ki of 4.1 nM.

As to `C[C@]12Cc3cnn(-c4ccccc4)c3C=C1CC[C@@H]2CN(CCc1ccccc1O)S(=O)(=O)Cc1cccnc1` [Example 141, N-[2-(2-hydroxyphenyl)ethyl]-N-{[(4αR,5S)-4α-methyl-1-phenyl-1,4,4α,5,6,7-hexahydrocyclopenta[f]indazol-5-yl]methyl}-1-pyridin-3-ylmethanesulfonamide], the Ki is 1.1 nM.

Consider `C[C@]12Cc3cnn(-c4ccc(F)cc4)c3C=C1CC[C@@H]2CN(CC(O)c1ccccn1)S(=O)(=O)CC(F)(F)F` (stereo partly drawn) [Example 142, 2,2,2-trifluoro-N-{[(4αR,5S)-1-(4-fluorophenyl)-4α-methyl-1,4,4α,5,6,7-hexahydrocyclopenta[f]indazol-5-yl]methyl}-N-(2-hydroxy-2-pyridin-2-ylethyl)ethanesulfonamide], for which the Ki turned out to be 0.9 nM.

As to `C[C@]12Cc3cnn(-c4ccc(F)cc4)c3C=C1CC[C@@H]2CN(CC(O)c1cccnc1)S(=O)(=O)CC(F)(F)F` (stereo partly drawn) [Example 143, 2,2,2-trifluoro-N-{[(4αR,5S)-1-(4-fluorophenyl)-4α-methyl-1,4,4α,5,6,7-hexahydrocyclopenta[f]indazol-5-yl]methyl}-N-(2-hydroxy-2-pyridin-3-ylethyl)ethanesulfonamide], the Ki came out at 13.3 nM.

In turn, `C[C@]12Cc3cnn(-c4ccc(F)cc4)c3C=C1CC[C@@H]2CN(CC(O)c1ccncc1)S(=O)(=O)CC(F)(F)F` (stereo partly drawn) [Example 144, 2,2,2-trifluoro-N-{[(4αR,5S)-1-(4-fluorophenyl)-4α-methyl-1,4,4α,5,6,7-hexahydrocyclopenta[f]indazol-5-yl]methyl}-N-(2-hydroxy-2-pyridin-4-ylethyl)ethanesulfonamide] gave an inhibition constant Ki of 0.9 nM.

Consider `C[C@]12Cc3cnn(-c4ccc(F)cc4)c3C=C1CC[C@@H]2CN(CC(OS(=O)(=O)CC(F)(F)F)c1ccccn1)S(=O)(=O)CC(F)(F)F` (stereo partly drawn) [Example 145, 2-{{[(4αR,5S)-1-(4-fluorophenyl)-4α-methyl-1,4,4α,5,6,7-hexahydrocyclopenta[f]indazol-5-yl]methyl}[(2,2,2-trifluoroethyl)sulfonyl]amino}-1-pyridin-2-ylethyl 2,2,2-trifluoroethanesulfonate], for which the Ki was determined as 1 nM.

As to `CC(CN(C[C@H]1CCC2=Cc3c(cnn3-c3ccc(F)cc3)C[C@@]21C)S(=O)(=O)CC(F)(F)F)c1cccnc1` (stereo partly drawn) [Example 146, 2,2,2-trifluoro-N-{[(4αR,5S)-1-(4-fluorophenyl)-4α-methyl-1,4,4α,5,6,7-hexahydrocyclopenta[f]indazol-5-yl]methyl}-N-(2-pyridin-3-ylpropyl)ethanesulfonamide], the affinity corresponds to a Ki of 0.8 nM.

Consider `C[C@]12Cc3cnn(-c4ccc(F)cc4)c3C=C1CC[C@@H]2CN(CCC(N)C(F)(F)F)S(=O)(=O)CC(F)(F)F` (stereo partly drawn) [Example 147, N-(3-amino-4,4,4-trifluorobutyl)-2,2,2-trifluoro-N-{[(4aR,5S)-1-(4-fluorophenyl)-4α-methyl-1,4,4α,5,6,7-hexahydrocyclopenta[f]indazol-5-yl]methyl}ethanesulfonamide], for which the inhibition constant (Ki) worked out at 3.2 nM.

`CCCS(=O)(=O)N(CC(O)C(F)(F)F)C[C@H]1CCC2=Cc3c(cnn3-c3ccc(F)cc3)C[C@@]21C` (stereo partly drawn) [Example 148, N-{[(4αR,5S)-1-(4-fluorophenyl)-4α-methyl-1,4,4α,5,6,7-hexahydrocyclopenta[f]indazol-5-yl]methyl}-N-(3,3,3-trifluoro-2-hydroxypropyl)propane-1-sulfonamide] showed a Ki of 1.6 nM.

Compound `C[C@]12Cc3cnn(-c4ccc(F)cc4)c3C=C1CC[C@@H]2CN(CC(O)C(F)(F)F)S(=O)(=O)Cc1cccnc1` (stereo partly drawn) [Example 149, N-{[(4αR,5S)-1-(4-fluorophenyl)-4α-methyl-1,4,4α,5,6,7-hexahydrocyclopenta[f]indazol-5-yl]methyl}-1-pyridin-3-yl-N-(3,3,3-trifluoro-2-hydroxypropyl)methanesulfonamide] returned a Ki of 1.8 nM.

In turn, `Cn1cc(S(=O)(=O)N(CCc2ccccn2)C[C@H]2CCC3=Cc4c(cnn4-c4ccc(F)cc4)C[C@@]32C)c(C(F)(F)F)n1` [Example 150, N-{[(4αR,5S)-1-(4-fluorophenyl)-4α-methyl-1,4,4α,5,6,7-hexahydrocyclopenta[f]indazol-5-yl]methyl}-1-methyl-N-(2-pyridin-2-ylethyl)-3-(trifluoromethyl)-1H-pyrazole-4-sulfonamide] came in with a Ki of 1.5 nM.

`CCCS(=O)(=O)N(CCc1ccccn1)C[C@H]1CCC2=Cc3c(cnn3-c3ccc(F)cc3)C[C@@]21C` [Example 151, N-{[(4αR,5S)-1-(4-fluorophenyl)-4α-methyl-1,4,4α,5,6,7-hexahydrocyclopenta[f]indazol-5-yl]methyl}-N-(2-pyridin-2-ylethyl)propane-1-sulfonamide] came in with a Ki of 1.3 nM.

For `C[C@]12Cc3cnn(-c4ccc(F)cc4)c3C=C1CC[C@@H]2CN(CCc1ccccn1)S(=O)(=O)CCN1C(=O)c2ccccc2C1=O` [Example 152, 2-(1,3-dioxo-1,3-dihydro-2H-isoindol-2-yl)-N-{[(4αR,5S)-1-(4-fluorophenyl)-4α-methyl-1,4,4α,5,6,7-hexahydrocyclopenta[f]indazol-5-yl]methyl}-N-(2-pyridin-2-ylethyl)ethanesulfonamide], affinity was put at a Ki of 1.6 nM.

The compound `C[C@]12Cc3cnn(-c4ccc(F)cc4)c3C=C1CC[C@@H]2CN(CCc1ccccn1)S(=O)(=O)Cc1ccccc1C(F)(F)F` [Example 153, N-{[(4αR,5S)-1-(4-fluorophenyl)-4α-methyl-1,4,4α,5,6,7-hexahydrocyclopenta[f]indazol-5-yl]methyl}-N-(2-pyridin-2-ylethyl)-1-[2-(trifluoromethyl)phenyl]methanesulfonamide] showed a Ki of 1.2 nM.

Turning to `C[C@]12Cc3cnn(-c4ccc(F)cc4)c3C=C1CC[C@@H]2CN(CC(O)C(F)F)S(=O)(=O)Cc1cccnc1` (stereo partly drawn) [Example 154, N-(3,3-difluoro-2-hydroxypropyl)-N-{[(4αR,5S)-1-(4-fluorophenyl)-4α-methyl-1,4,4α,5,6,7-hexahydrocyclopenta[f]indazol-5-yl]methyl}-1-pyridin-3-ylmethanesulfonamide], the Ki amounted to 1.3 nM.

Compound `CCCS(=O)(=O)N(CC(O)C(F)F)C[C@H]1CCC2=Cc3c(cnn3-c3ccc(F)cc3)C[C@@]21C` (stereo partly drawn) [Example 155, N-(3,3-difluoro-2-hydroxypropyl)-N-{[(4αR,5S)-1-(4-fluorophenyl)-4α-methyl-1,4,4α,5,6,7-hexahydrocyclopenta[f]indazol-5-yl]methyl}propane-1-sulfonamide] had a Ki of 2.9 nM.

Compound `Cn1cc(S(=O)(=O)N(CC(O)C(F)F)C[C@H]2CCC3=Cc4c(cnn4-c4ccc(F)cc4)C[C@@]32C)c(C(F)(F)F)n1` (stereo partly drawn) [Example 156, N-(3,3-difluoro-2-hydroxypropyl)-N-{[(4αR,5S)-1-(4-fluorophenyl)-4α-methyl-1,4,4α,5,6,7-hexahydrocyclopenta[f]indazol-5-yl]methyl}-1-methyl-3-(trifluoromethyl)-1H-pyrazole-4-sulfonamide] had a Ki of 2.5 nM.

In turn, `Cn1cc(S(=O)(=O)N(CC(O)c2ccccn2)C[C@H]2CCC3=Cc4c(cnn4-c4ccc(F)cc4)C[C@@]32C)c(C(F)(F)F)n1` (stereo partly drawn) [Example 157, N-{[(4αR,5S)-1-(4-fluorophenyl)-4α-methyl-1,4,4α,5,6,7-hexahydrocyclopenta[f]indazol-5-yl]methyl}-N-(2-hydroxy-2-pyridin-2-ylethyl)-1-methyl-3-(trifluoromethyl)-1H-pyrazole-4-sulfonamide] gave an inhibitory constant (Ki) of 0.8 nM.

For the compound `C[C@]12Cc3cnn(-c4ccc(F)cc4)c3C=C1CC[C@@H]2CN(CC=O)S(=O)(=O)c1ccccc1F` [Example 158, 2-fluoro-N-{[(4αR,5S)-1-(4-fluorophenyl)-4α-methyl-1,4,4α,5,6,7-hexahydrocyclopenta[f]indazol-5-yl]methyl}-N-(2-oxoethyl)benzenesulfonamide], the Ki was determined as 4.2 nM.
